Assay results published in patent US20250332300A1 (priority 2024, published 2025).
Counter-ions that a name gives are not always drawn. Like-named read-outs stand apart in the source and are kept apart here. Starred links: 1 amine or outer side, 2 acyl side, 3 side chain; linkers in the order of their positions; H or OH if unused. Positions of bridges follow the written chain, without caps; N, C: chain ends. Non-standard residues stand in square brackets, D forms with d. Residues, ends and D or L forms follow the SMILES beside them. *: point of attachment. DOTA = O=C(O)CN1CCN(CC(=O)O)CCN(CC(=O)*)CCN(CC(=O)O)CC1; Trp(5-OH) = N[C@@H](Cc1c[nH]c2ccc(O)cc12)C(=O)O; NMePhe(4-F) = CN[C@@H](Cc1ccc(F)cc1)C(=O)O; NMehPhe = CN[C@@H](CCc1ccccc1)C(=O)O; Glutaryl = O=C(CCCC(=O)[*:2])[*:1]; NMeAhp(2) = CCCCC[C@H](NC)C(=O)O; NMeE = CN[C@@H](CCC(=O)O)C(=O)O; Aad = N[C@@H](CCCC(=O)O)C(=O)O; Gly(cPr) = N[C@H](C(=O)O)C1CC1; Ahp(2) = CCCCC[C@H](N)C(=O)O; NMeK = CN[C@@H](CCCCN)C(=O)O; NMeDap = CN[C@@H](CN)C(=O)O; NMeC = CN[C@@H](CS)C(=O)O; NMeS = CN[C@@H](CO)C(=O)O; Dap = NC[C@H](N)C(=O)O

Assays:
Format in all cases: binding
human HER2 (23-652) [1] = target: T1, human HER2 (23-652) (Homo sapiens, UniProt P04626); experiment: TR-FRET competition assay for peptide potency, human HER2; parameters: towards human HER2 (23-652) and mouse HER2 (23-653); made in house; host or cells: mammalian cells
mouse HER2 (23-653) [2] = target: T2, mouse HER2 (23-653) (Mus musculus, UniProt P70424); experiment: Surface plasmon resonance (SPR) for assessment of peptide affinity, mouse HER2; parameters: mouse HER2 (23-653) using a Cy5 labeled peptide as a probe; made in house
From the text: Each protein was immobilized either onto a SA sensorchip (Cytiva, BR-1005-31) or CM5 sensorchip (Cytiva, BR-1005-30) to a density of 800-2000 RU.

human HER2 (23-652) [3] = target: T1, human HER2 (23-652); experiment: Surface plasmon resonance (SPR) for assessment of peptide affinity, human HER2; parameters: towards human HER2 (23-652) and mouse HER2 (23-653); made in house
Summary of the method: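 Binding kinetics fitted from sensorgrams with 280 s peptide association then 3000 s dissociation (30 uL/min), using HER2 (23-652) either directly immobilized (SA/CM5) or anti-Fc-captured; 3 M magnesium chloride used for regeneration.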

mouse HER2 (23-653) [4] = target: T2, mouse HER2 (23-653); experiment: TR-FRET competition assay for peptide potency, mouse HER2; parameters: mouse HER2 (23-653) using a Cy5 labeled peptide as a probe; made in house; host or cells: mammalian cells
[5] = huHER2 TR-FRET IC50, TR-FRET competition with Cy5 labeled peptide probe, 0.1 nM human HER2, 24 h incubation
[6] = SPR, mouse HER2 extracellular domain, 25° C., 1:1 binding model, read-out: moHER2-SPR-ONC KD
[7] = TR-FRET competition with Cy5 labeled peptide probe, 0.1 nM mouse HER2, 24 h incubation, read-out: moHER2 TR-FRET IC50
[8] = SPR, human HER2 extracellular domain, 25° C., 1:1 binding model, read-out: huHER2-SPR-ONC KD

SMILES | IC50 (human HER2 (23-652) [1]; [5]) [nM] | Kd (mouse HER2 (23-653) [2]; [6]) [nM] | Kd (human HER2 (23-652) [3]) [nM] | IC50 (mouse HER2 (23-653) [4]; [7]) [nM] | IC50 (human HER2 (23-652) [1]; read-out: huHER2 TR-FRET IC50) [nM] | Kd (human HER2 (23-652) [3]; [8]) [nM] | IC50 (human HER2 (23-652) [1]; huHER2 TR-FRET IC50, recalculated value achieved after further repetition, value in parentheses (**): recalculated after further repetition) [nM] | Kd (mouse HER2 (23-653) [2]) [nM] | IC50 (mouse HER2 (23-653) [4]; moHER2 TR-FRET IC50, TR-FRET competition with Cy5 labeled peptide probe, 0.1 nM mouse HER2, 24 h incubation) [nM] | IC50 (mouse HER2 (23-653) [4]; moHER2 TR-FRET IC50, recalculated value achieved after further repetition, value in parentheses (**): recalculated after further repetition) [nM]
CN1C(=O)[C@H](CO)NC(=O)[C@H](Cc2ccc(O)cc2)NC(=O)[C@@H](N)CSSC[C@@H](C(=O)N(C)[C@@H](Cc2ccc(F)cc2)C(N)=O)N(C)C(=O)[C@H](C2CC2)NC(=O)[C@H](Cc2c[nH]c3ccccc23)NC(=O)[C@H](Cc2c[nH]c3ccc(O)cc23)NC(=O)[C@H](CO)N(C)C(=O)[C@@H]1CCc1ccccc1 [Example A54, (4R,7S,10S,13S,16S,19S,22S,25S,28R)-10-((1H-indol-3-yl)methyl)-28-amino-N—((S)-1-amino-3-(4-fluorophenyl)-1-oxopropan-2-yl)-7-cyclopropyl-13-((5-hydroxy-1H-indol-3-yl)methyl)-25-(4-hydroxybenzyl)-16,22-bis(hydroxymethyl)-N,5,17,20-tetramethyl-6,9,12,15,18,21,24,27-octaoxo-19-phenethyl-1,2-dithia-5,8,11,14,17,20,23,26-octaazacyclononacosane-4-carboxamide TFA salt] (H-CYS[NMehPhe][NMeS][Trp(5-OH)]W[Gly(cPr)][NMeC][NMePhe(4-F)]-NH2; disulfide 1-9) | > 1000 | 5310 | 1710 | > 1000 | – | – | – | – | – | –
CC(=O)NCCCC[C@H]1C(=O)N[C@@H](Cc2c[nH]c3ccc(O)cc23)C(=O)N[C@H](Cc2c[nH]c3ccccc23)C(=O)N[C@@H](C2CC2)C(=O)N(C)[C@H](C(=O)N(C)[C@@H](Cc2ccc(F)cc2)C(=O)N[C@@H](CCCCNC(=O)CN2CCN(CC(=O)O)CCN(CC(=O)O)CCN(CC(=O)O)CC2)C(N)=O)CNC(=O)CCC[C@H](NC(C)=O)C(=O)N[C@@H](Cc2ccc(O)cc2)C(=O)N[C@@H](CO)C(=O)N(C)[C@@H](CCc2ccccc2)C(=O)N1C [Example B9] | – | > 6000 | – | > 1000 | > 1000 | 5110 | – | – | – | –
CC(=O)NCCCC[C@H]1C(=O)N[C@@H](Cc2c[nH]c3ccc(O)cc23)C(=O)N[C@@H](Cc2c[nH]c3ccccc23)C(=O)N[C@@H](C2CC2)C(=O)N(C)[C@H](C(=O)N(C)[C@@H](Cc2ccc(F)cc2)C(N)=O)CNC(=O)CCCC(=O)N[C@@H](Cc2ccc(O)cc2)C(=O)N[C@@H](CO)C(=O)N(C)[C@@H](CCc2ccccc2)C(=O)N1C [Example A7, (3S,6S,9S,12S,15S,18S,21S,24S)-9-((1H-indol-3-yl)methyl)-15-(4-acetamidobutyl)-N-((S)-1-amino-3-(4-fluorophenyl)-1-oxopropan-2-yl)-6-cyclopropyl-12-((5-hydroxy-1H-indol-3-yl)methyl)-24-(4-hydroxybenzyl)-21-(hydroxymethyl)-N,4,16,19-tetramethyl-5,8,11,14,17,20,23,26,30-nonaoxo-18-phenethyl-1,4,7,10,13,16,19,22,25-nonaazacyclotriacontane-3-carboxamide] (YS[NMehPhe][NMeK](Ac)[Trp(5-OH)]W[Gly(cPr)][NMeDap][NMePhe(4-F)]-NH2; linker N-8 via Glutaryl) | – | 23 | – | 40 | 18 | 18 | – | – | – | –
CC(=O)NCCCC[C@H]1C(=O)N[C@@H](Cc2c[nH]c3ccc(O)cc23)C(=O)N[C@@H](C)C(=O)N[C@@H](C2CC2)C(=O)N(C)[C@H](C(=O)N(C)[C@@H](Cc2ccc(F)cc2)C(=O)N[C@@H](CCCCNC(=O)CN2CCN(CC(=O)O)CCN(CC(=O)O)CCN(CC(=O)O)CC2)C(N)=O)CNC(=O)CCC[C@H](NC(C)=O)C(=O)N[C@@H](Cc2ccc(O)cc2)C(=O)N[C@@H](CO)C(=O)N(C)[C@@H](CCc2ccccc2)C(=O)N1C [Example B3] (Ac-[Aad]YS[NMehPhe][NMeK](Ac)[Trp(5-OH)]A[Gly(cPr)][NMeDap][NMePhe(4-F)]K(DOTA)-NH2; lactam 1-9) | – | > 6000 | – | > 1000 | > 1000 | > 6000 | – | – | – | –
CCCCC[C@@H]1NC(=O)[C@H](CCCCNC(C)=O)N(C)C(=O)[C@H](CCc2ccccc2)N(C)C(=O)[C@H](CO)NC(=O)[C@H](Cc2ccc(O)cc2)NC(=O)[C@@H](NC(C)=O)CCCC(=O)NC[C@@H](C(=O)N(C)[C@@H](Cc2ccc(F)cc2)C(N)=O)N(C)C(=O)[C@H](C2CC2)NC(=O)[C@H](Cc2c[nH]c3ccccc23)NC1=O [Example A11, (3S,6S,9S,12S,15S,18S,21S,24S,27S)-9-((1H-indol-3-yl)methyl)-27-acetamido-15-(4-acetamidobutyl)-N-((S)-1-amino-3-(4-fluorophenyl)-1-oxopropan-2-yl)-6-cyclopropyl-24-(4-hydroxybenzyl)-21-(hydroxymethyl)-N,4,16,19-tetramethyl-5,8,11,14,17,20,23,26,31-nonaoxo-12-pentyl-18-phenethyl-1,4,7,10,13,16,19,22,25-nonaazacyclohentriacontane-3-carboxamide] (Ac-[Aad]YS[NMehPhe][NMeK](Ac)[Ahp(2)]W[Gly(cPr)][NMeDap][NMePhe(4-F)]-NH2; lactam 1-9) | – | 786 | – | > 1000 | 966 | 445 | – | – | – | –
CN1C(=O)[C@H](CO)NC(=O)[C@H](Cc2ccc(O)cc2)NC(=O)[C@@H](N)CNC(=O)CC[C@@H](C(=O)N(C)[C@@H](Cc2ccc(F)cc2)C(N)=O)N(C)C(=O)[C@H](C2CC2)NC(=O)[C@H](Cc2c[nH]c3ccccc23)NC(=O)[C@H](Cc2c[nH]c3ccc(O)cc23)NC(=O)[C@H](CO)N(C)C(=O)[C@@H]1CCc1ccccc1 [Example A34, (3S,6S,9S,12S,15S,18S,21S,24S,30S)-6-((1H-indol-3-yl)methyl)-24-amino-N-((S)-1-amino-3-(4-fluorophenyl)-1-oxopropan-2-yl)-3-cyclopropyl-9-((5-hydroxy-1H-indol-3-yl)methyl)-21-(4-hydroxybenzyl)-12,18-bis(hydroxymethyl)-N,1,13,16-tetramethyl-2,5,8,11,14,17,20,23,27-nonaoxo-15-phenethyl-1,4,7,10,13,16,19,22,26-nonaazacyclotriacontane-30-carboxamide TFA salt] (H-[Dap]YS[NMehPhe][NMeS][Trp(5-OH)]W[Gly(cPr)][NMeE][NMePhe(4-F)]-NH2; lactam 1-9) | 158 | – | 68 | – | – | – | 118 | 64 | 296 | 175
CCCCC[C@@H](C(N)=O)N(C)C(=O)[C@@H]1CNC(=O)CCC[C@H](NC(C)=O)C(=O)N[C@@H](Cc2ccc(O)cc2)C(=O)N[C@@H](CO)C(=O)N(C)[C@@H](CCc2ccccc2)C(=O)N(C)[C@@H](CCCCNC(C)=O)C(=O)N[C@@H](Cc2c[nH]c3ccc(O)cc23)C(=O)N[C@@H](Cc2c[nH]c3ccccc23)C(=O)N[C@@H](C2CC2)C(=O)N1C [Example A15, (3S,6S,9S,12S,15S,18S,21S,24S,27S)-9-((1H-indol-3-yl)methyl)-27-acetamido-15-(4-acetamidobutyl)-N-((S)-1-amino-1-oxoheptan-2-yl)-6-cyclopropyl-12-((5-hydroxy-1H-indol-3-yl)methyl)-24-(4-hydroxybenzyl)-21-(hydroxymethyl)-N,4,16,19-tetramethyl-5,8,11,14,17,20,23,26,31-nonaoxo-18-phenethyl-1,4,7,10,13,16,19,22,25-nonaazacyclohentriacontane-3-carboxamide] (Ac-[Aad]YS[NMehPhe][NMeK](Ac)[Trp(5-OH)]W[Gly(cPr)][NMeDap][NMeAhp(2)]-NH2; lactam 1-9) | – | 24 | – | 55 | 27 | 24 | – | – | – | –
CC(=O)N[C@H]1CCC(=O)NC[C@@H](C(=O)N(C)[C@@H](Cc2ccc(F)cc2)C(N)=O)N(C)C(=O)[C@H](C2CC2)NC(=O)[C@H](Cc2c[nH]c3ccccc23)NC(=O)[C@H](Cc2cnn3ccccc23)NC(=O)[C@H](CO)N(C)C(=O)[C@H](CCc2ccccc2)N(C)C(=O)[C@H](CO)NC(=O)[C@H](Cc2ccc(O)cc2)NC1=O [Example A16, (3S,6S,9S,12S,15S,18S,21S,24S,27S)-9-((1H-indol-3-yl)methyl)-27-acetamido-N-((S)-1-amino-3-(4-fluorophenyl)-1-oxopropan-2-yl)-6-cyclopropyl-24-(4-hydroxybenzyl)-15,21-bis(hydroxymethyl)-N,4,16,19-tetramethyl-5,8,11,14,17,20,23,26,30-nonaoxo-18-phenethyl-12-(pyrazolo[1,5-a]pyridin-3-ylmethyl)-1,4,7,10,13,16,19,22,25-nonaazacyclotriacontane-3-carboxamide] | – | > 6000 | – | > 1000 | > 1000 | > 6000 | – | – | – | –
